According to ChEMBL document CHEMBL4680364, “Substituted Chromen-4-one Derivatives for Treating Hepatitis B Virus Infection” (ACS Med Chem Lett, 2021):

system: Hepatitis B virus; experiment: Antiviral activity against HBV in human HepDE19 cells producing HBV cccDNA assessed as reduction in cccDNA production by measuring HBeAg level incubated for 24 hrs by ELISA; assay type: functional, organism-based; conditions: HepDE19, 24 h

SMILES | IC50
COc1c(-c2cc(=O)c3cccc(Cl)c3o2)ccc(Br)c1OC1CC(C(=O)O)C1 (stereo unspecified) | 190 nM
O=C(O)COc1cc(-c2cc(=O)c3cccc(Cl)c3o2)ccc1C(F)(F)F | 320 nM
CCOc1cc(Br)c(OCCC(=O)O)cc1-c1cc(=O)c2cccc(Cl)c2o1 | 110 nM
COc1cc(OC)c(-c2cc(=O)c3cccc(Cl)c3o2)cc1OCCOC1CC(C(=O)O)C1 (stereo unspecified) | 190 nM

The next lines start with the values.

IC50 | SMILES
133 nM | O=C(O)CCOc1cc(-c2cc(=O)c3cccc(Cl)c3o2)c(F)cc1Br
490 nM | Cc1ccc(-c2cc(=O)c3cccc(Cl)c3o2)cc1O[C@H]1C[C@@H](C(=O)O)C1
